# Where a SMILES comes first, the peptide text is derived from it. Bridges are numbered along the chain shown (N, C = ends). [ ]: non-standard residue; d: D form. 2Nal = N[C@@H](Cc1ccc2ccccc2c1)C(=O)O; AEF = NCCOc1ccc(C[C@H](N)C(=O)O)cc1; 3Pal = N[C@@H](Cc1cccnc1)C(=O)O; αMeL = CC(C)C[C@](C)(N)C(=O)O; Orn = NCCC[C@H](N)C(=O)O; Dab = NCC[C@H](N)C(=O)O; βAla = NCCC(=O)O
# Legend:
# [1] = molecular target: T1, human IL-23R (Homo sapiens, UniProt Q5VWK5); experiment: biochemical; conditions: for Emax: read-out: % displacement (hIL-23R NIuc)
# T1 sequence (Q5VWK5 22-629): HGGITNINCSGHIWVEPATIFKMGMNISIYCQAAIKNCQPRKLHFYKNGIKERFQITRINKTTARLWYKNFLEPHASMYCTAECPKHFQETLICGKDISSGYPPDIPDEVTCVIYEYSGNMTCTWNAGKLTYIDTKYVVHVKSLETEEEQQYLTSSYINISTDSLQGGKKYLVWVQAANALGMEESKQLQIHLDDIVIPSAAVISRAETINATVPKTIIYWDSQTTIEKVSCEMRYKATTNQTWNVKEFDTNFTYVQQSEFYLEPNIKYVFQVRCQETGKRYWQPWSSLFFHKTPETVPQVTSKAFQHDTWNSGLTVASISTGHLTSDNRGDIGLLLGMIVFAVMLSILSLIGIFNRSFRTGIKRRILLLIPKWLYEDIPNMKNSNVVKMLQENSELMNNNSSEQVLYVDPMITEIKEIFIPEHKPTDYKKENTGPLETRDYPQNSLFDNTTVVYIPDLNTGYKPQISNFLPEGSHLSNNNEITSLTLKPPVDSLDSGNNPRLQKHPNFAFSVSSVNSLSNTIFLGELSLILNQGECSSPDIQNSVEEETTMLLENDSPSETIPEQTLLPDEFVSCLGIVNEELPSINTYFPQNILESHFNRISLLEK
# Summary of the method: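 BRET displacement of a TAMRA-labelled reference compound from N-terminal Nanoluc-IL-23R fusion protein in membranes from stably transfected HEK293 cells. Incubation 2 h at room temperature, then Nanoluc substrate was added and the TAMRA/Nanoluc ratio read. IC50 and maximal displacement came from 4-parameter logistic fits.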
# [2] = Peptide stability in simulated intestinal fluid (SIF); assay type: in vitro ADME; conditions: 37 °C, porcine pancreatin; for SIF (% remaining 4 h) / remaining at 4 h, 10 µM: pH 6.8, 4 h; for remaining at 1 h, 10 µM / remaining at 4 h, 10 µM: pig
# Experimental: (§1) SGF was prepared by dissolving sodium chloride (0.2 g) in 50 mL of water. A volume of 0.7 mL of 10 M HCl was added to adjust the pH of the solution to 1.2 and the volume made up to 100 mL with water. […] SIF was prepared by dissolving monobasic potassium phosphate (0.68 g) in 50 mL of water and adjusting the pH to 6.8 with 1 M NaOH. The volume was subsequently made up to 100 mL with water. 200 mg porcine pancreatin (P1625, Sigma Aldrich) was gently dissolved into 20 mL preheated (37 °C) solution (10 g/L) immediately prior to the incubation.
# (§2) The incubation was performed at 37 °C with gentle shaking. […] After the last timepoint, the sampling plate was mixed for 10 min on a shaking table and centrifuged 10 min at 2200 g. 70 µL resulting supernatant was diluted with 150 µL water, mixed and centrifugated before analysis by liquid chromatography high resolution mass spectrometry. […] Percent remaining at each timepoint was calculated relative to timepoint zero based on absolute peak areas.
# Compounds with a SIF stability (after 4 h) above 70% are considered highly SIF stable.
# [3] = Peptide stability in simulated gastric fluid (SGF); assay type: in vitro ADME; conditions: 37 °C, porcine pepsin; for remaining at 1 h, 10 µM / remaining at 4 h, 10 µM: pig, simulated gastric fluid (SGF) with porcine pepsin (3.2 g/L), pH 1.2, 10 µM; for remaining at 1 h, 10 µM: read-out: SGF (% remaining 1 h); for remaining at 4 h, 10 µM / SGF (% remaining 4 h): pH 1.2, 4 h; for remaining at 4 h, 10 µM: read-out: SGF (% remaining 4 h)
# Experimental: as §1, §2
# Compounds with a SGF stability (after 4 h) above 70% are considered highly SGF stable. […] Table 3-4: SGF data
# [4] = SAR tables, % peptide remaining, read-out: SIF (% after 4 h)
# [5] = read-out: SIF (% remaining 4 h)
Compound,IC50 [1],Emax [1],SIF (% remaining 4 h) ([2]; 10 µM),"remaining at 1 h, 10 µM ([2]; pH 6.8, 1 h)","remaining at 4 h, 10 µM [2, 4]","remaining at 1 h, 10 µM ([3]; pH 1.2, 1 h)","remaining at 4 h, 10 µM [3]",% displacement (hIL-23R NIuc) [1],"remaining at 4 h, 10 µM [2, 5]",SGF (% remaining 4 h) ([3]; 10 µM),"SIF (% remaining 1 h) ([2]; 10 µM, pH 6.8, 1 h)","SGF (% remaining 1 h) ([3]; 10 µM, pH 1.2, 1 h)"
"CC[C@H](C)[C@@H]1NC(=O)[C@@H]2CCCCNC(=O)CC[C@@H](C(=O)NCCCCC(=O)N[C@@H](Cc3cccnc3)C(=O)NC)NC(=O)[C@](C)(CC(C)C)NC(=O)[C@H](Cc3ccc4ccccc4c3)NC(=O)[C@H](Cc3ccc(OCCN)cc3)NC(=O)[C@H](CCC(=O)N2)NC(=O)[C@H](CCC(N)=O)NC(=O)[C@H](Cc2c[nH]c3ccccc23)NC(=O)[C@H](C(C)C)NC1=O [Compound 64, K(1c)(6c)^†IVWQE(6c)[Y(2-aminoethoxy)][2-Nal][2-Me-Leu]E(1c)[5-Aminopentanoyl][3-(3-Pyridyl)-Ala]-[NHMe]]",11000 pM,99%,86%,93%,86%,102%,90%,,,,,
"CC[C@H](C)[C@@H]1NC(=O)[C@@H]2CCCCNC(=O)CC[C@@H](C(=O)N[C@@H](Cc3cn(C)cn3)C(=O)N[C@@H](Cc3cccnc3)C(=O)NC)NC(=O)[C@](C)(CC(C)C)NC(=O)[C@H](Cc3ccc4ccccc4c3)NC(=O)[C@H](Cc3ccc(OCCN)cc3)NC(=O)[C@H](CCC(=O)N2)NC(=O)[C@H](CCC(N)=O)NC(=O)[C@H](Cc2c[nH]c3ccccc23)NC(=O)[C@H](C(C)C)NC1=O [Compound 73, K(1c)(6c)^†IVWQE(6c)[Y(2-aminoethoxy)][2-Nal][2-Me-Leu]E(1c)[H(1-Me)][3-(3-Pyridyl)-Ala]-[NHMe]]",120 pM,,,11%,,100%,99%,102%,0%,,,
"CNC(=O)[C@H](Cc1cccnc1)NC(=O)[C@H](CCN)NC(=O)[C@@H]1CCC(=O)NCCCC[C@@H]2NC(=O)CC[C@H](NC(=O)[C@H](CCC(N)=O)NC(=O)[C@H](Cc3c[nH]c4ccccc34)NC(=O)CCNC2=O)C(=O)N[C@@H](Cc2ccncc2)C(=O)N[C@@H](Cc2ccc3ccccc3c2)C(=O)N[C@@](C)(CC(C)C)C(=O)N1 [Compound 85, K(1c)(6c)^†[3-Aminopropanoyl]WQE(6c)[3-(4-Pyridyl)-Ala][2-Nal][2-Me-Leu]E(1c)[Dab][3-(3-Pyridyl)-Ala]-[NHMe]]",170 pM,97%,,103%,,109%,110%,,85%,,,
"CC[C@H](C)[C@@H]1NC(=O)[C@@H]2CCCCNC(=O)CC[C@@H](C(=O)NCC(=O)N[C@H](Cc3cccnc3)C(N)=O)NC(=O)[C@](C)(C(C)C)NC(=O)[C@H](Cc3ccc4ccccc4c3)NC(=O)[C@H](Cc3ccc(C)cc3)NC(=O)[C@H](CCC(=O)N2)NC(=O)[C@H](CCC(N)=O)NC(=O)[C@H](Cc2c[nH]c3ccccc23)NC(=O)[C@H](C(C)C)NC1=O [Compound 19, K(1c)(6c)^†IVWQE(6c)[F(4-Me)][2-Nal][2-Me-Val]E(1c)G[{d}3-(3-Pyridyl)-Ala]-[NH2]]",37000 pM,103%,,90%,,78%,6%,,27%,,,
"CC[C@H](C)[C@@H]1NC(=O)[C@@H]2CCCCNC(=O)CC[C@@H](C(=O)NC3(C(=O)N[C@@H](Cc4cccnc4)C(=O)NC)CCNCC3)NC(=O)[C@](C)(CC(C)C)NC(=O)[C@H](Cc3ccc4ccccc4c3)NC(=O)[C@H](Cc3ccc(OCCN)cc3)NC(=O)[C@H](CCC(=O)N2)NC(=O)[C@H](CCC(N)=O)NC(=O)[C@H](Cc2c[nH]c3ccccc23)NC(=O)[C@H](C(C)C)NC1=O [Compound 62, K(1c)(6c)^†IVWQE(6c)[Y(2-aminoethoxy)][2-Nal][2-Me-Leu]E(1c)[4-Aminopiperidin-4-carbonyl][3-(3-Pyridyl)-Ala]-[NHMe]]",72 pM,99%,,111%,,105%,108%,,87%,,,
"CC[C@H](C)[C@@H]1NC(=O)[C@@H]2CCCCNC(=O)CC[C@@H](C(=O)N3CCNC3C(=O)N[C@@H](Cc3cccnc3)C(=O)NC)NC(=O)[C@](C)(CC(C)C)NC(=O)[C@H](Cc3ccc4ccccc4c3)NC(=O)[C@H](Cc3ccc(OCCN)cc3)NC(=O)[C@H](CCC(=O)N2)NC(=O)[C@H](CCC(N)=O)NC(=O)[C@H](Cc2c[nH]c3ccccc23)NC(=O)[C@H](C(C)C)NC1=O (stereo partly drawn) [Compound 72, K(1c)(6c)^†IVWQE(6c)[Y(2-aminoethoxy)][2-Nal][2-Me-Leu]E(1c)[(R,S)-Imidazolidin-2-carbonyl][3-(3-Pyridyl)-Ala]-[NHMe]]",99000 pM,97%,110%,102%,110%,94%,107%,,,,,
"CNC(=O)[C@H](Cc1cccnc1)NC(=O)[C@H](CCN)NC(=O)[C@@H]1CCC(=O)NCCCC[C@@H]2NC(=O)CC[C@H](NC(=O)[C@H](CCC(N)=O)NC(=O)[C@H](Cc3c[nH]c4ccccc34)NC(=O)CCNC2=O)C(=O)N[C@@H](Cc2cccnc2)C(=O)N[C@@H](Cc2ccc3ccccc3c2)C(=O)N[C@@](C)(CC(C)C)C(=O)N1 [Compound 83, K(1c)(6c)^†[3-Aminopropanoyl]WQE(6c)[3-(3-Pyridyl)-Ala][2-Nal][2-Me-Leu]E(1c)[Dab][3-(3-Pyridyl)-Ala]-[NHMe]]",380 pM,101%,,94%,,106%,97%,,86%,,,
"CNC(=O)[C@H](Cc1cccnc1)NC(=O)[C@H](CCN)NC(=O)[C@@H]1CCC(=O)NCCCC[C@@H]2NC(=O)CC[C@H](NC(=O)[C@H](CCC(N)=O)NC(=O)[C@H](Cc3c[nH]c4ccccc34)NC(=O)CCN(C)C2=O)C(=O)N[C@@H](Cc2ccc(OCCN)cc2)C(=O)N[C@@H](Cc2ccc3ccccc3c2)C(=O)N[C@@](C)(CC(C)C)C(=O)N1 [Compound 81, K(1c)(6c)^†[N-Me-3-Aminopropanoyl]WQE(6c)[Y(2-aminoethoxy)][2-Nal][2-Me-Leu]E(1c)[Dab][3-(3-Pyridyl)-Ala]-[NHMe]]",56 pM,,,101%,,100%,,103%,78%,99%,,
"CNC(=O)[C@H](Cc1cccnc1)NC(=O)[C@H](CCN)NC(=O)[C@@H]1CCC(=O)NCCC[C@@H]2NC(=O)CC[C@H](NC(=O)[C@H](CCC(N)=O)NC(=O)[C@H](Cc3c[nH]c4ccccc34)NC(=O)CCNC2=O)C(=O)N[C@@H](Cc2ccc(OCCN)cc2)C(=O)N[C@@H](Cc2ccc3ccccc3c2)C(=O)N[C@@](C)(CC(C)C)C(=O)N1 [Compound 91, [Orn](1c)(6c)^†[3-Aminopropanoyl]WQE(6c)[Y(2-aminoethoxy)][2-Nal][2-Me-Leu]E(1c)[Dab][3-(3-Pyridyl)-Ala]-[NHMe]] ([Orn][βAla]WQE[AEF][2Nal][αMeL]E[Dab][3Pal]-NHMe; lactam 1-9, N-5)",350 pM,100%,,98%,,116%,115%,,57%,,,
"CC(C)C[C@@H]1NC(=O)[C@H](Cc2c[nH]c3ccccc23)NC(=O)[C@H](Cc2c[nH]c3ccccc23)NC(=O)[C@@H]2CSCC(=O)CSC[C@H](NC(=O)[C@H](CO)NC(=O)[C@@H](NC(=O)[C@@H](N)CC(=O)O)CSCC(=O)CSC[C@@H](C(=O)N[C@@H](CCCNC(=N)N)C(N)=O)NC1=O)C(=O)N[C@@H](Cc1c[nH]c3ccccc13)C(=O)N[C@@H](CCC(N)=O)C(=O)N2 (single isomer, unassigned) [I3 (isomer 3), H-DC(1a)SC(2a)WQC(2a)WWLC(1a)R-[NH2], reference compound]",,,0%,,,,,,,0%,0%,5%

# From patent EP4471048A1, “PEPTIDE INHIBITORS OF INTERLEUKIN-23 RECEPTOR” (Zealand Pharma A/S, priority 2023, dated 2024)
